# Experimental data as given in US20050287552A1, “Carbohydrate encapsulated nanoparticle based affinity mass spectrometry” (Academia Sinica, Office of Public Affairs (Technology …, priority 2003, published 2005).
# Target: Con A (Canavalia ensiformis, UniProt P02866)
# Experiment: SPR competition binding assay for Con A
# Conditions: Con A tetramer 0.5 uM, pre-incubated 1 hr with inhibitor
# Description: A self-assembled monolayer composed of 20% mannopyranoside ligand and 80% thiobutanol mixture was generated on a J1 biosensor chip (See FIG. 9). In particular, immobilization of ligand to the biosensor chip was preformed in BIAcore 3000 instrument. A mixture of 4-mercapto-1-butanol (Ligand A) and 5-thiopentyl α-D-mannopyranoside (Ligand B) in deionized water was injected into a flow cell with the J1 biochip.
# Next, the binding affinity of Con A for this chip was determined by titration with a series of Con A concentrations to generate multiple SPR curves. In particular, Con A was dissolved in sample buffer (1.0 mL, 20 mM HEPES, pH 7.0, 90 mM NaCl with 1 mM MnCl2 and CaCl2) and then filtered by a syringe. Con A solution (50 μL) was injected over immobilized biosensor surface and allowed 260 seconds for dissociation and then followed by regeneration buffer. A set of SPR response curves was obtained after different concentrations of Con A solution were applied (See FIG. 10A, showing curves for 6, 3, 1.5, 0.38, 0.19 uM of Con A (top to bottom)).
# Competition assays were then conducted. […] The mixture (50 uL) was then injected and the flow rate was controlled at 60 uL/minute. The equilibrium binding response values was collected at equilibrium binding portion of the curve (260 seconds post-injection). […]
substance,measurement,value
α-D-methyl-mannopyrannoside [αMeMan],Ki,200 µM
